Among the data in article PMC11249953, “c-KIT inhibitors reduce pathology and improve behavior in the Tg(SwDI) model of Alzheimer’s disease” (Life Science Alliance, 2024) are inhibition and remaining binding values, retold here.

For orientation: inhibition means the percentage by which the read-out fell short of the control.

Molecules are shown by their SMILES.

One experiment deals with T1, SRC (Homo sapiens, UniProt P12931).
T1 construct: DNA label for qPCR read-out (T7 phage fusion or DNA tag); purchased Eurofins DiscoverX Corporation; host or cells: T7 phage in E. coli (BL21-derived) or HEK-293
T1 sequence (P12931 whole entry, the tested form may be a part): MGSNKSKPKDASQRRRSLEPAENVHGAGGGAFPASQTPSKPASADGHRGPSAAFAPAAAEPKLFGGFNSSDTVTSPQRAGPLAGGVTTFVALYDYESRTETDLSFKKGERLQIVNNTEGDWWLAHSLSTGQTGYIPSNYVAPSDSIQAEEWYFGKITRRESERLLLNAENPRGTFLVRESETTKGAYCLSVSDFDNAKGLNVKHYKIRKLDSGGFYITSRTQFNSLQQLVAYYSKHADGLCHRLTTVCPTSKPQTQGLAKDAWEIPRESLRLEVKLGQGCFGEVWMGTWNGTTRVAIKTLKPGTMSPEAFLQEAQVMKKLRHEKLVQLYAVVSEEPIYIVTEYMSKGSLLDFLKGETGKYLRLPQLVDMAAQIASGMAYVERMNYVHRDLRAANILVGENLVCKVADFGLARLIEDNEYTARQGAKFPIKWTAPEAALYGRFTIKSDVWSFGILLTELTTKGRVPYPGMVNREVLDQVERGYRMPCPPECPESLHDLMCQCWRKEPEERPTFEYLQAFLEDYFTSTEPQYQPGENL
In words: KINOMEscan competition binding, SRC. As to conditions: 10 µM compound; for remaining binding at 10 µM: lower = stronger binding, read-out: SRC %Ctrl @ 10000nM (POC). As to the method:
(§1) The KINOMEscan screening platform (Eurofins DiscoverX Corporation) was performed using active site-directed competition binding assay to quantitatively measure interactions between BK40143 and BK40197 and more than 450 human kinases and disease relevant mutant variants. […] Screening “hits” are identified by measuring the amount of kinase captured in test (BK40143 and BK40197) versus control samples by using a quantitative and ultra-sensitive qRT-PCR method that detects the associated DNA label. BK40143 and BK40197 were screened at 10 µM concentration, and results for primary screen binding interactions were reported as “% Ctrl” (POC), where lower numbers indicate stronger hits and calculated as follows: [test compound signal−positive control signal/negative control signal−positive control signal]×100
(§2) negative control = DMSO (100% Ctrl)
(§3) positive control = control compound (0% Ctrl)
(§4) Based on screening data from of profiled compounds, a proportional relationship between primary screening results and corresponding compound/target affinities can be described as binding constants (Kd values) for the indicated ranges of POC values with tighter binding (higher affinity) interactions associated with lower POC values and weaker binding (lower affinity) associated with higher POC values. Briefly, kinase-tagged T7 phage strains were grown in parallel in 24-well blocks in an E. coli host derived from the BL21 strain. E. coli were grown to log-phase and infected with T7 phage from a frozen stock (multiplicity of infection = 0.4) and incubated with shaking at 32°C until lysis (90–150 min). The lysates were centrifuged (6,000g) and filtered (0.2 μm) to remove cell debris. The remaining kinases were produced in HEK-293 cells and subsequently tagged with DNA for qRT-PCR detection. Streptavidin-coated magnetic beads were treated with biotinylated small molecule ligands for 30 min at RT to generate affinity resins for kinase assays. The liganded beads were blocked with excess biotin and washed with blocking buffer (1% BSA, 0.05% Tween 20, 1 mM DTT; SeaBlock [Pierce]) to remove unbound ligand and to reduce non-specific phage binding. Binding reactions were assembled by combining kinases, liganded affinity beads, and test compounds in 1x binding buffer (20% 0.17x PBS, 0.05% Tween 20, 6 mM DTT; SeaBlock). Test compounds were prepared as 100x stocks in 100% DMSO and directly diluted into the assay. All reactions were performed in polypropylene 384-well plates in a final volume of 0.02 ml. The assay plates were incubated at RT with shaking for 1 h and the affinity beads were washed with wash buffer (1x PBS, 0.05% Tween 20). […] The kinase concentration in the eluates was measured by qRT-PCR.

In another experiment the target is T2, CSF1R (Homo sapiens, UniProt P07333).
T2 construct: DNA label for qPCR read-out (T7 phage fusion or DNA tag); purchased Eurofins DiscoverX Corporation; host or cells: T7 phage in E. coli (BL21-derived) or HEK-293
T2 sequence (P07333 20-972): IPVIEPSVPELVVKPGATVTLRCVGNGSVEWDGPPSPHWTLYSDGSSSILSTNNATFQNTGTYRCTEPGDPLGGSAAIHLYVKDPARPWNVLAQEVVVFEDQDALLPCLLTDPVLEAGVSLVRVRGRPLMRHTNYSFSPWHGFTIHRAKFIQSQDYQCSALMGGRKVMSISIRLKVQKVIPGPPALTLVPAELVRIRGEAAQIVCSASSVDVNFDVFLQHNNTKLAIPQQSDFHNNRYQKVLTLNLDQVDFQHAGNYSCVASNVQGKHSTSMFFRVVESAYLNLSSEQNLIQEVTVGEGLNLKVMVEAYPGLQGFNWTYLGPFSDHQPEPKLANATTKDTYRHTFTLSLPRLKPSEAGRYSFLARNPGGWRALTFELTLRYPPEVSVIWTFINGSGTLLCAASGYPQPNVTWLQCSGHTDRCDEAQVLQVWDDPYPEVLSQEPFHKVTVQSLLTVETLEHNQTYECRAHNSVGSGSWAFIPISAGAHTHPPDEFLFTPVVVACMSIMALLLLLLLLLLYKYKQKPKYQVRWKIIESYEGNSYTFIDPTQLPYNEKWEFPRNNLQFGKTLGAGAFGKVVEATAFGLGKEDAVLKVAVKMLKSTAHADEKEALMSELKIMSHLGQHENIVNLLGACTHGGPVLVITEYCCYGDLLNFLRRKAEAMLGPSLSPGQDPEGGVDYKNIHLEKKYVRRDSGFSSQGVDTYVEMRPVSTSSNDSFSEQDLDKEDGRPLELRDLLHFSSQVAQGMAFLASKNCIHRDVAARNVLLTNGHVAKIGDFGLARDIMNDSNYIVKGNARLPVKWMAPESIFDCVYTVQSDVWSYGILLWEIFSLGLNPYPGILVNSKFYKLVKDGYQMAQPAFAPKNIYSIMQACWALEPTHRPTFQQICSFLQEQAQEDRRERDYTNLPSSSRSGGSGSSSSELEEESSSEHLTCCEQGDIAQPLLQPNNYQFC
In words: KINOMEscan competition binding, CSF1R. As to conditions: 10 µM compound; for remaining binding at 10 µM: lower = stronger binding, read-out: CSF1R %Ctrl @ 10000nM. The protocol: as §1, §2, §3, §4

In another experiment the target is T3, ULK3 (Homo sapiens, UniProt Q6PHR2).
T3 construct: DNA label for qPCR read-out (T7 phage fusion or DNA tag); purchased Eurofins DiscoverX Corporation; host or cells: T7 phage in E. coli (BL21-derived) or HEK-293
T3 sequence (Q6PHR2 1-472): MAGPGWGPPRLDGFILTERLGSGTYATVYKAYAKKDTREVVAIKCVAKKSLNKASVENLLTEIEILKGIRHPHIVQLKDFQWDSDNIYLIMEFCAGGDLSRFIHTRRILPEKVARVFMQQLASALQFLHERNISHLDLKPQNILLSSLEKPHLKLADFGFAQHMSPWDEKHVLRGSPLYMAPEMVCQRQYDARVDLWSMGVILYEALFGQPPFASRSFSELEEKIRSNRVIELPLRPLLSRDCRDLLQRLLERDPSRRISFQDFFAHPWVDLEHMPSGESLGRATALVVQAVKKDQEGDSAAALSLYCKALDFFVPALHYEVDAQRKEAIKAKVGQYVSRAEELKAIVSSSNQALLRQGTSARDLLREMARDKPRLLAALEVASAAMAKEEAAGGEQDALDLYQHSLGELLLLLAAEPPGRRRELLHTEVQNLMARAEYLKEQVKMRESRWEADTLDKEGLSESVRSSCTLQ
As to the kind of experiment: KINOMEscan competition binding, ULK3. The note with it: 10 µM compound; for remaining binding at 10 µM: lower = stronger binding, read-out: ULK3 %Ctrl @ 10000nM (POC). The protocol: as §1, §2, §3, §4

The target in another experiment is T4, LCK (Homo sapiens, UniProt P06239).
T4 construct: DNA label for qPCR read-out (T7 phage fusion or DNA tag); purchased Eurofins DiscoverX Corporation; host or cells: T7 phage in E. coli (BL21-derived) or HEK-293
T4 sequence (P06239 whole entry, the tested form may be a part): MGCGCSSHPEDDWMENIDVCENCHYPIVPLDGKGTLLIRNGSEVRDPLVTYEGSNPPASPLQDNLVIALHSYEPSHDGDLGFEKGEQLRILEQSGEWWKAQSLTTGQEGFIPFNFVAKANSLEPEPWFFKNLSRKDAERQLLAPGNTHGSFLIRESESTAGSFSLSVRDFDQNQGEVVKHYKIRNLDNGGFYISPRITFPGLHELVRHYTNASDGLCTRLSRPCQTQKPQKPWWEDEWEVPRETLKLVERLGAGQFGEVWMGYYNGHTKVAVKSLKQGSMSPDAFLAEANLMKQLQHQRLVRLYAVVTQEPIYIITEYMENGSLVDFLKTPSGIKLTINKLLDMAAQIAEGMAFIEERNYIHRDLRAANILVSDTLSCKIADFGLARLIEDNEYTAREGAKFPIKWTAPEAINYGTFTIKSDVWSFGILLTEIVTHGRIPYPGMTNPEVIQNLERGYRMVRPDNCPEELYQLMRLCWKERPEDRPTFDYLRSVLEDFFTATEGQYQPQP
As to the kind of experiment: KINOMEscan competition binding, LCK. As to conditions: 10 µM compound; for remaining binding at 10 µM: lower = stronger binding, read-out: LCK %Ctrl @ 10000nM (POC). The protocol:
as §1, §2, §3, §4

The next experiment addresses T5, PDGFRb (Homo sapiens, UniProt P09619).
T5 construct: DNA label for qPCR read-out (T7 phage fusion or DNA tag); purchased Eurofins DiscoverX Corporation; host or cells: T7 phage in E. coli (BL21-derived) or HEK-293
In words: KINOMEscan competition binding, PDGFRb. The note with it: 10 µM compound; for remaining binding at 10 µM: lower = stronger binding, read-out: PDGFRb %Ctrl @ 10000nM (POC). The protocol:
as §1, §2, §3, §4

In the next experiment the target is T6, p-ABL1 (Homo sapiens, UniProt P00519).
T6 construct: DNA label for qPCR read-out (T7 phage fusion or DNA tag); purchased Eurofins DiscoverX Corporation; host or cells: T7 phage in E. coli (BL21-derived) or HEK-293
In words: KINOMEscan competition binding, p-ABL1. The note with it: 10 µM compound; for remaining binding at 10 µM: lower = stronger binding, read-out: p-ABL1 %Ctrl @ 10000nM (POC). As to the method: as §1, §2, §3, §4

For another experiment, the target named is T7, DDR1 (Homo sapiens, UniProt Q08345).
T7 construct: DNA label for qPCR read-out (T7 phage fusion or DNA tag); purchased Eurofins DiscoverX Corporation; host or cells: T7 phage in E. coli (BL21-derived) or HEK-293
T7 sequence (Q08345 19-913): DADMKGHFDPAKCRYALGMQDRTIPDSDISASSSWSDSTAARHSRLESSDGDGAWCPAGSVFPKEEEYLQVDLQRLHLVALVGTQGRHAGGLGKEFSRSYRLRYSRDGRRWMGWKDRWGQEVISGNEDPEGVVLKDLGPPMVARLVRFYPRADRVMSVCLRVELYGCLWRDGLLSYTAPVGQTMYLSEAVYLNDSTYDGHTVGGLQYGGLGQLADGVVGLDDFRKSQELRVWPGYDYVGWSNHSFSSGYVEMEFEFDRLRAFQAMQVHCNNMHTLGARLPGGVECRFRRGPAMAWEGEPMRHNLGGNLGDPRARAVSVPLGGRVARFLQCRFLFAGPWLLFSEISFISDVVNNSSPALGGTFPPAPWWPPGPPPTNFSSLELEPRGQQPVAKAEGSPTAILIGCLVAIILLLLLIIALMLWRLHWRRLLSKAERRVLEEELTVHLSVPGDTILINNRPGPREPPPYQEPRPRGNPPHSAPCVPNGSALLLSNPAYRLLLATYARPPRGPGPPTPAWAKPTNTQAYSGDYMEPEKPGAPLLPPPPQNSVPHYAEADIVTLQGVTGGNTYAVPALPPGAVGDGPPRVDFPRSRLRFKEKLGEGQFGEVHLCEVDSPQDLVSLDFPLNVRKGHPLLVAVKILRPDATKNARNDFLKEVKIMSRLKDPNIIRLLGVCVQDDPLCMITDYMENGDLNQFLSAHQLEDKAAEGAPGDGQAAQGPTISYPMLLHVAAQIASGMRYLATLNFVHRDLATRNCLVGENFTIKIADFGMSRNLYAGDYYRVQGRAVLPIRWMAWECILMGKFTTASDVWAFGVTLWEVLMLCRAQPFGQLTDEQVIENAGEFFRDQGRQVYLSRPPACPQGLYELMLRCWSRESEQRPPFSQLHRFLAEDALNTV
In words: KINOMEscan competition binding, DDR1. The note with it: 10 µM compound; for remaining binding at 10 µM: lower = stronger binding, read-out: DDR1 %Ctrl @ 10000nM. The protocol: as §1, §2, §3, §4

The target in the next experiment is T8, KIT (V559D) (Homo sapiens, UniProt P10721, V559D).
T8 construct: DNA label for qPCR read-out (T7 phage fusion or DNA tag); purchased Eurofins DiscoverX Corporation; host or cells: T7 phage in E. coli (BL21-derived) or HEK-293
T8 sequence (P10721 26-976 V559D): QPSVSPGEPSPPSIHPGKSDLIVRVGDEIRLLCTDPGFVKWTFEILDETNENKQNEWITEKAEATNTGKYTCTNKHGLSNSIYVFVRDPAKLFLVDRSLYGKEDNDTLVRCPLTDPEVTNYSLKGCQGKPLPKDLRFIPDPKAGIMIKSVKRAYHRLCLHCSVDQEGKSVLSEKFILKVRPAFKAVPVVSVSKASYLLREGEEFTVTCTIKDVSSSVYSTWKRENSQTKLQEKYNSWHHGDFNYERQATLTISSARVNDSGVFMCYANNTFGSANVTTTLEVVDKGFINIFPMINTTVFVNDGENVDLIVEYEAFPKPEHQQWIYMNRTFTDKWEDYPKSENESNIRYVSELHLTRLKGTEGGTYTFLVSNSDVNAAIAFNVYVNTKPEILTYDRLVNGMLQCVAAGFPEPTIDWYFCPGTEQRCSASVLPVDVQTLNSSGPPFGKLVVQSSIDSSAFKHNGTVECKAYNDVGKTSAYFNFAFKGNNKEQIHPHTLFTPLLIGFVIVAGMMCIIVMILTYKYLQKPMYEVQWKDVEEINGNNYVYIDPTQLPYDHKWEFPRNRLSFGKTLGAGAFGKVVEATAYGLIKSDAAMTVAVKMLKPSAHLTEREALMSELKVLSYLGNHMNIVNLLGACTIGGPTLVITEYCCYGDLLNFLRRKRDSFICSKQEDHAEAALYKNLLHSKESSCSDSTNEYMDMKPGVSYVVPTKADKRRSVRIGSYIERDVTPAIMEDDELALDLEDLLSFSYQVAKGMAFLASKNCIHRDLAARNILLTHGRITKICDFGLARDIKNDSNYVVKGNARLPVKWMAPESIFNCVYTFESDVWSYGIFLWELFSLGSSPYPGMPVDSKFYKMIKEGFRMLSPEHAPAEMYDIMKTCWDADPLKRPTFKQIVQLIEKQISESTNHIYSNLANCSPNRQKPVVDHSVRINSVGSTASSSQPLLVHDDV
As to the kind of experiment: KINOMEscan competition binding, KIT (V559D). As to conditions: 10 µM compound; for remaining binding at 10 µM: lower = stronger binding, read-out: KIT (V559D) %Ctrl @ 10000nM (POC). As to the method: as §1, §2, §3, §4

In the next experiment the target is T9, RIOK3 (Homo sapiens, UniProt O14730).
T9 construct: DNA label for qPCR read-out (T7 phage fusion or DNA tag); purchased Eurofins DiscoverX Corporation; host or cells: T7 phage in E. coli (BL21-derived) or HEK-293
T9 sequence (O14730 1-519): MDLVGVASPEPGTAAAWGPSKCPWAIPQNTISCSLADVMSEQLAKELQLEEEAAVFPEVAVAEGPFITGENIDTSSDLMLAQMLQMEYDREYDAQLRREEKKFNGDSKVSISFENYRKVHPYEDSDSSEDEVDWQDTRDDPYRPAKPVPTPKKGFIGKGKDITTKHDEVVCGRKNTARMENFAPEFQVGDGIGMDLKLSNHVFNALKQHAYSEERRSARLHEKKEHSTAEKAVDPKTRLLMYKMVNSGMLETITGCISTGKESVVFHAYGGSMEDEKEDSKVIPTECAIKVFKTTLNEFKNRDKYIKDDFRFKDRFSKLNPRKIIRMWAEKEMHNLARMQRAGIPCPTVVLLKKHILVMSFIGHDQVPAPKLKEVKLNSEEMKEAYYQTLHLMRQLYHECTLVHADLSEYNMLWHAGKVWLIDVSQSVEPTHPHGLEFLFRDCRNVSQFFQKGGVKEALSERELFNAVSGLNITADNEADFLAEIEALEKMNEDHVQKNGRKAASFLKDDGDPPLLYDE
In words: KINOMEscan competition binding, RIOK3. The note with it: 10 µM compound; for remaining binding at 10 µM: lower = stronger binding, read-out: RIOK3 %Ctrl @ 10000nM (POC). As to the method: as §1, §2, §3, §4

T5 sequence (P09619 33-1106): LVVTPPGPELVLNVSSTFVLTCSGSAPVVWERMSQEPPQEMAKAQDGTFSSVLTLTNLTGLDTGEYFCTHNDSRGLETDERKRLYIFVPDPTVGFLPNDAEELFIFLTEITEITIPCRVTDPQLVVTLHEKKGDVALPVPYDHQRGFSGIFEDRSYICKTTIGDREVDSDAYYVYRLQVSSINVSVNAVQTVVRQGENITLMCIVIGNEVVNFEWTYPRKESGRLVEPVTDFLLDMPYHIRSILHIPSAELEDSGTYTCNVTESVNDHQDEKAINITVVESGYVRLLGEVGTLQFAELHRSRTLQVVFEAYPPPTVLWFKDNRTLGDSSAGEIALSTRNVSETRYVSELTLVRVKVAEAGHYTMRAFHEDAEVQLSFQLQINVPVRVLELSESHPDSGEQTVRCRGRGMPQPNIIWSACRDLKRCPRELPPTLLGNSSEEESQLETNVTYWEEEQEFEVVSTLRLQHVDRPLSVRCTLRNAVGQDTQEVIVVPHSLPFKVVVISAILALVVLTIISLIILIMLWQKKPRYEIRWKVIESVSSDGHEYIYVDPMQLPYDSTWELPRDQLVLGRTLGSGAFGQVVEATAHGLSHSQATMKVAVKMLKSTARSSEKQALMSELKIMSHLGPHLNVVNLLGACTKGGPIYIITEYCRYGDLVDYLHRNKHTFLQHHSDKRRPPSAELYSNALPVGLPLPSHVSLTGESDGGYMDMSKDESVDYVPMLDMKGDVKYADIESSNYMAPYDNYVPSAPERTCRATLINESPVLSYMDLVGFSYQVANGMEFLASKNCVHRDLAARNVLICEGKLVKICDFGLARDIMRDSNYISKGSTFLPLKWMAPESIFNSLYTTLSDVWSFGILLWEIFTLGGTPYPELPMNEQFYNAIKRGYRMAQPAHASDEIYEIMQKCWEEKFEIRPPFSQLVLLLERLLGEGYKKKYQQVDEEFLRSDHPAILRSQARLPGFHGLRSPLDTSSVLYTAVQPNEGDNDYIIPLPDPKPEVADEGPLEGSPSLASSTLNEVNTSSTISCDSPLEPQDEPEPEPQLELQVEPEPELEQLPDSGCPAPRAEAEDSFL

Consider `Cc1cccc(-c2cc3nccc(Nc4ccccc4)c3s2)c1` [BK40143], for which the inhibition at 10 µM on SRC was 84.7%; on CSF1R it was 62%; at ULK3, 90.2%; on LCK, 92.9%; on PDGFRb, 99.9%; on p-ABL1 it was 97.5%. In addition, the inhibition at 10 µM at DDR1 is 69%; on KIT (V559D), 99.8%; at RIOK3, 80%. Moreover, the remaining binding at 10 µM on SRC was found to be 5.3%; on CSF1R, 38%; at ULK3 it was 9.8%; on LCK, 7.1%; at PDGFRb it was 0.1%; on p-ABL1 it was 2.5%. Besides, the remaining binding at 10 µM worked out at 31% on DDR1, 0.25% at KIT (V559D) and 20% on RIOK3.
Regarding `Cc1cccc(-c2cc3nccc(N4CCOCC4)c3s2)c1` [BK40197], the inhibition at 10 µM worked out at 19% on SRC; 77% on CSF1R; 93.9% at ULK3; 9% at LCK; 98.7% at PDGFRb; 63% on p-ABL1. Moreover, the values for the inhibition at 10 µM on DDR1, on KIT (V559D) and on RIOK3 were 0%, 99.7% and 95.2%, respectively. For the same compound, the remaining binding at 10 µM on SRC was 81%; on CSF1R, 23%; at ULK3, 6.1%; on LCK it was 91%; at PDGFRb, 1.3%; on p-ABL1, 37%. Further, the remaining binding at 10 µM was determined as 100% at DDR1, 0.35% on KIT (V559D) and 4.8% on RIOK3.
